This note sets out measurements from patent US8952034B2, “Fused heterocyclic compounds as ion channel modulators” (Gilead Sciences, Inc., priority 2009, dated 2015).

The target of the first assay is wild-type human cardiac sodium channel, hNav1.5 (Homo sapiens, UniProt Q14524). Nature of the assay: Late INa screening assay (automated whole cell patch clamp, PatchXpress). Type of assay: cell-based.
Sequence of wild-type human cardiac sodium channel, hNav1.5 (Q14524 whole entry): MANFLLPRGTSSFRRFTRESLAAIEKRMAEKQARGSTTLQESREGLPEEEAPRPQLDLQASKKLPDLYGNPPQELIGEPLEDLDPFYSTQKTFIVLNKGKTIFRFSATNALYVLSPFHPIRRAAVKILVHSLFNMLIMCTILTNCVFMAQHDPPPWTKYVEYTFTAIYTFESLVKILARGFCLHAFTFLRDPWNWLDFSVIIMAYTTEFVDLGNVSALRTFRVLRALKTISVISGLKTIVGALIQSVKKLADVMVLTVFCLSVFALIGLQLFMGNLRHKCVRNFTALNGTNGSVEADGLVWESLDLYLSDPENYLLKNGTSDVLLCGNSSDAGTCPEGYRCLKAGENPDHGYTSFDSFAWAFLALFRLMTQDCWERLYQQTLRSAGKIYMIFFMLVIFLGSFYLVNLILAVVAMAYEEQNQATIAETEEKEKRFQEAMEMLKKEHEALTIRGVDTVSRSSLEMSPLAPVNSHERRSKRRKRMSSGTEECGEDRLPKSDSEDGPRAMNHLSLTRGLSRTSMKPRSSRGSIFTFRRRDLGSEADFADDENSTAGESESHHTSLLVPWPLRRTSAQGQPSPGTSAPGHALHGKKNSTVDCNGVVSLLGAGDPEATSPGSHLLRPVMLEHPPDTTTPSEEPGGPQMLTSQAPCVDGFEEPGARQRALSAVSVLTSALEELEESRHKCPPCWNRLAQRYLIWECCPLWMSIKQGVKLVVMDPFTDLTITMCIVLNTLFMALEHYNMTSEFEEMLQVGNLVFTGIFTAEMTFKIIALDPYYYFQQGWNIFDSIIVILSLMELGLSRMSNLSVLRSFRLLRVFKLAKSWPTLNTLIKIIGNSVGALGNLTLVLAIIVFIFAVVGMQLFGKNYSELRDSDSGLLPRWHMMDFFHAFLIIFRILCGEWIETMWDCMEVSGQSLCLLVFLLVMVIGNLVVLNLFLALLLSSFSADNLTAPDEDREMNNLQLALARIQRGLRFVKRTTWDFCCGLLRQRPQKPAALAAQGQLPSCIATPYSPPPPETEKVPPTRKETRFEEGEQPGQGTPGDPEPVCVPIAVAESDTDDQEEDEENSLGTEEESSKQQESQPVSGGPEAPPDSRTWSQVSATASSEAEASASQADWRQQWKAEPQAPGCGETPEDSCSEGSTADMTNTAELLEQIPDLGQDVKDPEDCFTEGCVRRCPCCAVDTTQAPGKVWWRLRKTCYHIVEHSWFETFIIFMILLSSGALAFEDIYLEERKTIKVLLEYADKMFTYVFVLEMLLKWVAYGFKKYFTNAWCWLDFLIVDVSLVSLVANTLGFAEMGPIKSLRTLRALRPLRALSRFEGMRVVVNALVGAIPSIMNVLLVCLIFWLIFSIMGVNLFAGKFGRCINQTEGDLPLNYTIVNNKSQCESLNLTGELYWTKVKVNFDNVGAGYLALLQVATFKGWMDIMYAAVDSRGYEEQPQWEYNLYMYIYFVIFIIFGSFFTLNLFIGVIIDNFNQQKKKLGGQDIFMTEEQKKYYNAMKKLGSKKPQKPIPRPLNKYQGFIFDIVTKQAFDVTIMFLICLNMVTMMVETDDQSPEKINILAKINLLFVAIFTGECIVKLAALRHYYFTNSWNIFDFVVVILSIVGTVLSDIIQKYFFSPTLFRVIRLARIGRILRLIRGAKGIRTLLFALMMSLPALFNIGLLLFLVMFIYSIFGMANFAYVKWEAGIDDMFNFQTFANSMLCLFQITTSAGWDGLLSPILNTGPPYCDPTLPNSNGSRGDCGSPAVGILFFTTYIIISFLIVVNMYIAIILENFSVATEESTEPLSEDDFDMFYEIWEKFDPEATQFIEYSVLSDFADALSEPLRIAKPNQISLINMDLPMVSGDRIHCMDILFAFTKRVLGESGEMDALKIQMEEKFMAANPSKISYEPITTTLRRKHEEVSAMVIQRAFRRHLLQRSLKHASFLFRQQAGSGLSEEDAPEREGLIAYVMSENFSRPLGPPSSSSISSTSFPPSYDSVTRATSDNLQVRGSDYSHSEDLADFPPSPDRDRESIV
Conditions: not given
In a few lines: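 Late sodium current through wild-type human hNav1.5 stably expressed in HEK293 cells (no beta subunits) was recorded by automated whole-cell patch clamp on a PatchXpress 7000A at 24-27° C. Late INa was induced with 10 μM Tefluthrin or 50 nM ATX II. Cells were stepped from −120 mV to −20 mV for 250 ms at 0.1 Hz, and percent block was normalized to current in Na-free extracellular solution.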
(In general: The patch-clamp technique gives a direct electrical read-out from membranes.)
Turning to `FC(F)(F)Oc1ccc(-c2ccc3nnc(Oc4cccc(C(F)(F)F)c4)n3c2)cc1` [BHN-258], the “LateINa_1 uM (percent block of late INa)” value was 80.1084%.

Staying with this assay, now noted: compound at 1 μM; HEK293 cells expressing hNav1.5; late INa generated with 10 μM Tefluthrin (or 50 nM ATX II); read-out: LateINa_1 uM (percent block of late INa).
As for `CC(OCc1nnc2ccc(-c3ccc(OC(F)(F)F)cc3)cn12)c1ccccc1` (centres unmarked) [BHN-246, 3-[(1-phenylethoxy)methyl]-6-[4-(trifluoromethoxy)phenyl][1,2,4]triazolo[4,3-a]pyridine], the inhibition at 1 µM amounted to 85.8%.

With `CC(OC(F)(F)c1nnc2ccc(-c3ccc(OC(F)(F)F)cc3)cn12)c1ccc(Cl)cc1Cl` (centres unmarked) [BHN-247, 3-{[1-(2,4-dichlorophenyl)ethoxy](difluoro)methyl}-6-[4-(trifluoromethoxy)phenyl][1,2,4]triazolo[4,3-a]pyridine], the inhibition at 1 µM is 74.1%. On the same count and under the same terms, as for `OC1(COC(F)(F)c2nnc3ccc(-c4ccc(OC(F)(F)F)cc4)cn23)CCC1` [BHN-248, 1-[(difluoro{6-[4-(trifluoromethoxy)phenyl][1,2,4]triazolo[4,3-a]pyridin-3-yl}methoxy)methyl]cyclobutanol], the figure is 50.2%; as for `CC(OC(F)(F)c1cccnc1)c1nnc2ccc(-c3ccc(OC(F)(F)F)cc3)cn12` (centres unmarked) [BHN-249, 3-{1-[difluoro(pyridin-3-yl)methoxy]ethyl}-6-[4-(trifluoromethoxy)phenyl][1,2,4]triazolo[4,3-a]pyridine], 22.7%; as for `FC(F)(F)Oc1ccc(-c2ccc3nnc(COCc4ccc(Cl)cc4Cl)n3c2)cc1` [BHN-250, 3-{[(2,4-dichlorobenzyl)oxy]methyl}-6-[4-(trifluoromethoxy)phenyl][1,2,4]triazolo[4,3-a]pyridine], 79.1%. Same read-out and setting: as for `Cc1ccc(COCc2nnc3ccc(-c4ccc(OC(F)(F)F)cc4)cn23)c(C)c1` [BHN-251, 3-{[(2,4-dimethylbenzyl)oxy]methyl}-6-[4-(trifluoromethoxy)phenyl][1,2,4]triazolo[4,3-a]pyridine], the figure is 75.8%; as for `Cc1ccc(COCc2nnc3ccc(-c4ccc(OC(F)(F)F)cc4)cn23)nc1` [BHN-252, 3-{[(5-methylpyridin-2-yl)methoxy]methyl}-6-[4-(trifluoromethoxy)phenyl][1,2,4]triazolo[4,3-a]pyridine], 20.6%; as for `Fc1cc(-c2ccc3nnc(C(F)F)n3n2)ccc1OC(F)(F)F` [BHN-253, 3-(difluoromethyl)-6-[3-fluoro-4-(trifluoromethoxy)phenyl][1,2,4]triazolo[4,3-b]pyridazine], 39.4%.

`N#CC1(c2ccc(-c3ccc4nnc(C(F)(F)F)n4c3)cc2)CCOCC1` [BHN-254, 4-{4-[3-(trifluoromethyl)[1,2,4]triazolo[4,3-a]pyridin-6-yl]phenyl}tetrahydro-2H-pyran-4-carbonitrile]: the inhibition at 1 µM was 24.6%. Turning to `CC(OCc1ccccn1)c1nnc2ccc(-c3ccc(OC(F)(F)F)cc3)cn12` (centres unmarked) [BHN-255, 3-[1-(pyridin-2-ylmethoxy)ethyl]-6-[4-(trifluoromethoxy)phenyl][1,2,4]triazolo[4,3-a]pyridine], the inhibition at 1 µM turned out to be 22.8%. Still for that read-out and setting: as for `CC(C)(C)OC(=O)N1CCC[C@H]1COC(F)(F)c1nnc2ccc(-c3ccc(OC(F)(F)F)cc3)cn12` [BHN-256, tert-butyl (2S)-2-[(difluoro{6-[4-(trifluoromethoxy)phenyl][1,2,4]triazolo[4,3-a]pyridin-3-yl}methoxy)methyl]pyrrolidine-1-carboxylate], the figure is 62.6%; as for `FC(F)(F)Oc1ccc(-c2ccc3nnc(COC(F)(F)c4cccnc4)n3c2)cc1` [BHN-257, 3-{[difluoro(pyridin-3-yl)methoxy]methyl}-6-[4-(trifluoromethoxy)phenyl][1,2,4]triazolo[4,3-a]pyridine], 46.2%; as for `FC(F)(F)Oc1ccc(-c2ccc3nnc(C(F)(F)OCc4noc(C5CCC5)n4)n3c2)cc1` [BHN-259, 3-{[(5-cyclobutyl-1,2,4-oxadiazol-3-yl)methoxy](difluoro)methyl}-6-[4-(trifluoromethoxy)phenyl][1,2,4]triazolo[4,3-a]pyridine], 71.6%.
